Assay results: patent US20110060045A1, “ANTI-DIABETIC CATARACT COMPOUNDS AND THEIR USES” (NATIONAL RESEARCH COUNCIL OF CANADA, priority 2006, published 2011)
Several values for one entry are separate records, joined by “and”; a condition that tells them apart may be missing. Equal values may be shown once. Read-outs that look alike come from different tables or passages of the source.

How the values were obtained:
[1] = biological target: T1, bovine serum albumin (BSA) with D-ribose (Bos taurus, UniProt P02769); assay: Maillard fluorescence-based anti-glycation assay; conditions: in vitro anti-glycation; for IC50: BSA 0.075 mM, D-ribose 50 mM, 37° C., 5 days; for Imax: maximum inhibition of Maillard fluorescence
T1 sequence (P02769 25-607): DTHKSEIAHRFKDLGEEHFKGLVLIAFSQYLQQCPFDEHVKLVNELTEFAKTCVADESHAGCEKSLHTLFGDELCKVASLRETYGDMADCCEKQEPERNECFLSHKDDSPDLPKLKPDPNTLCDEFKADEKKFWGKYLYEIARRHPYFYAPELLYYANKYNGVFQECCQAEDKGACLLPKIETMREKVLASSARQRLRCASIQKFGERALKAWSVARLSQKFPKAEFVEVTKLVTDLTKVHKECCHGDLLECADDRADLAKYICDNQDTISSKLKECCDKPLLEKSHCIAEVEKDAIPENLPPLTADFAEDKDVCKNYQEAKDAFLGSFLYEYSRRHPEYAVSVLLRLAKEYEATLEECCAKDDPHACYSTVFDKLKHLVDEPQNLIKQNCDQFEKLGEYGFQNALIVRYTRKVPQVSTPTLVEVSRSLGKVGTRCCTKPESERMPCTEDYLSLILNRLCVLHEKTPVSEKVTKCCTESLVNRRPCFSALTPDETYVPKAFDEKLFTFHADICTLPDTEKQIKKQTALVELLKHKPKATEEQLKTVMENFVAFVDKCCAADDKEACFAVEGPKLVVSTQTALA
Procedure: (§3) The Maillard fluorescence-based assay was used to screen anti-glycation activity of approximately 1,300 drugs or drug candidates. […] Briefly the assay involved incubation of bovine serum albumin (BSA) (0.075 mM) with D-ribose (50 mM) and an assay compound (0.47, 4.7 and 47 μg/mL). Solutions were incubated at 37° C. for 5 days.

[2] = pKa of the aromatic dihydroxyl group; type: physicochemical
[3] = better than epinephrine; cited from earlier work
[4] = biological target: T1, bovine serum albumin (BSA) with D-ribose; assay: biochemical
Procedure: as §3

[5] = tested on: human eye; conditions: cited from earlier work
[6] = tested on: PC12 cells; assay: Anti-oxidant activity against oxidative stress by H2O2 at the cellular level; type: cell-based; conditions: 10-100 μM; H2O2 killed over 80% of the PC12 cells
From the text: Glycation includes oxidative processes and is closely related to oxidative stress. […] The oxidative stress by H2O2 induces apoptosis in vitro and in vivo, and effective anti-oxidants such as N-acetyl-cysteine reduces the oxidative stress and protects the cells from the apoptosis.

[7] = tested on: human corneal epithelial cells (HCEC cells); conditions: human cornea epithelial cells, under the microscope
Procedure: HCEC cells were grown in EpiLife medium supplemented with human corneal growth supplements (HCGS; Cascade Biologics). The cells were maintained at 37° C. in a humidified atmosphere containing 5% CO2 and the medium was changed every other day. HCEC cells were seeded onto 96-well plates at a density of approximately 10^3 cells/well and cultivated for one day. […] The medium was aspirated and the treatments were applied to the cells (in triplicates) for different incubation times (5 minutes to 2 hours and 24 hours). At the end of the incubation times, the survival of the cells was visually examined under microscope.

[8] = tested on: Streptozotocin-injected diabetic rats; assay: Diabetic cataract initiation and progression in Streptozotocin-injected rats, eye drops; type: in vivo, rat; conditions: for Time entered in level 4 / Time stayed in level 0 / Time stayed in level 1 / Time stayed in level 2 / Time stayed in level 3: individual diabetic rats with drug; for Time entered in level 4 / Time stayed in level 0 / Time stayed in level 1 / Time stayed in level 2 / Time stayed in level 3 / Time stayed in level 0 (cataract initiation), Av ± STD / Time stayed in level 1, Av ± STD / Time stayed in level 2, Av ± STD / Time stayed in level 3, Av ± STD: hydrochloride; for Time stayed in level 0 (cataract initiation), Av ± STD / Time stayed in level 1, Av ± STD / Time stayed in level 2, Av ± STD / Time stayed in level 3, Av ± STD: diabetic rats with drug, n=17, both eyes; for Time stayed in level 0 (cataract initiation), Av ± STD: 0.10% eye drop twice a day
From the text: A rat model was used to study the effect of (S)-isoproterenol on diabetic cataract, that of streptozotocin-injection to induce diabetes by destroying the β-cells of the pancreas. This model has been widely used to study diabetes-related pathological events and their possible treatments (Dagher et al., 2004; Ben-nun et al., 2004; Chung et al., 2005). The rat model has an advantage of rapid formation of diabetic cataract such that initial cataract was observed as early as 8-9 weeks in the majority of the control diabetic rats. Two-month-old male Sprague-Dawley rats were purchased from Charles River, Canada. They were housed in the Biotechnology Research Institute (BRI)—animal facility. Housing and all experimental manipulations were approved by the BRI Animal Care Committee that functions under the guidelines of the Canadian Council of Animal Care.
(§1) The pH of the eye drop was adjusted to 5.5 with 1N—HCl. […] The eye drop was freshly prepared every month and was stored at 4° C. […] The size of each eye drop was 50 μL.
Diabetes was induced in male Sprague-Dawley rats weighing approximately 200 to 250 g by a single intraperitoneal injection of the beta-cell toxin, Streptozotocin (STZ) (Sigma, St. Louis, […].), at a dose of 60 mg/kg body weight in 0.1M citrate buffer pH 4.5. Non-diabetic control rats received citrate buffer only.
(§2) Eye drops or vehicle were administered twice a day, seven days a week, on the cornea of different groups of rats, with a minimum interval of 7 h between the two treatments. To promote weight gain and limit hyperglycemia, diabetic rats were injected sub-cutaneously with 2 IU ultralente insulin (Humulin, Eli Lilly, Toronto, ON, Canada) three times a week. Animal weights were monitored every week.
Cataract progression was monitored by visual examination, twice a week. A scoring system was devised to evaluate the severity of the cataract. A healthy eye was given a score of 0 (normal level); when a faint pinkish hue was discernable (level 1), cataract formation was in its earliest stage of being visually detected and this stage was given a score of 1. When a white film is clearly detectable (level 2), a score of 2 was assigned. When the film covers the entire eye, but the pupils are still visible (level 3), a score of 3 was assigned, and finally the cataract was considered most severe (score of 4) when the pupil was not detected due to the formation of the white film (level 4).

[9] = tested on: PC12 cells; assay: Cytotoxicity in PC12 cells (MTT assay); type: cell-based
Procedure: The cytotoxicity of (S)-isoproterenol dipivalate was measured by using PC12 cells. […] PC12 cells were seeded onto rat-tail collagen coated 96-well plates at a density of 2×10^4 cells/well and cultivated for one day. On the day of the experiment, dilutions of (S)-isoproterenol dipivalate ranging from 100 μM to 10 mM were prepared in complete medium. […] At the end of the incubation times, the medium was aspirated and 100 μL of a solution of MTT (3-(4,5-dimethylthiazol-2-yl)-2,5-diphenyltetrazolium; 0.2 mg/ml in complete medium) was added to the cells. After incubation at 37° C. for 2 hours, MTT was removed and the colored formazan was dissolved in dimethyl sulfoxide (DMSO) (½ hour at 37° C.). Reduction was measured by colorimetric detection (595 nm) of the blue insoluble formazan product. This assay provides an estimate of the number of functioning mitochondria present in the cells; i.e. the quantity of formazan product is directly proportional to the number of metabolically active cells in the culture. The viability of PC12 cells in each well was presented as percentage of control cells.

[10] = Storage stability of the eye drop (HPLC profiles); type: physicochemical; conditions: eye drop pH 5.5, one month of storage at 4° C.
Procedure: as §1

[11] = tested on: human eyes; conditions: cited from earlier work
[12] = Body weight of non-diabetic and diabetic rats; type: in vivo, rat
Procedure: as §2

[13] = large intravenous dose; cited from earlier work
[14] = tested on: dog; conditions: intravenous injection, compared with (R,S)-isoproterenol; cited from earlier work
[15] = 2.47% instilled to normal human eyes (Bonomi 1964)

In the case of CNCC(O)c1ccc(O)c(O)c1 (racemic) [(R,S)-Epinephrine], the IC50 [1] is reported as 17 ± 1.1 µM and the Imax [1] is reported as 82%.
CC(C)NCC(O)c1ccc(O)c(O)c1 (centres unmarked) [isoproterenol] gave a pKa [2] of 8.72 ± 0.05.
In the case of CNCC(O)c1ccc(OC(=O)C(C)(C)C)c(OC(=O)C(C)(C)C)c1 (racemic) [Dipivefrin, (R,S)-epinephrine dipivalate], the “enhancement of ocular absorption” value [3] is given as 17 time.
With NC[C@H](O)c1ccc(O)c(O)c1 [(R)-Norepinephrine] the IC50 [1] was 39.6 ± 3.4 µM and the Imax [1] was 92%.
CC(C)NC[C@H](O)c1ccc(O)c(O)c1 [(R)-Isoproterenol] showed an Imax [1] of 86% and an IC50 [4] of 18.1 ± 1.1 µM.
For CC(C)NCC(O)c1ccc(O)c(O)c1 (racemic) [(R,S)-isoproterenol], the “duration of reduction in ocular tension” value [5, 15] is listed as “at least 12 h” and the “reduction in ocular tension” value [5, 15] is listed as 20%.
Work on NC[C@@H](O)c1ccc(O)c(O)c1 [(S)-Norepinephrine] yielded an IC50 [1] of 40.3 ± 4.7 µM and an Imax [1] of 93%.
For CC(C)NC[C@@H](O)c1ccc(OC(=O)C(C)(C)C)c(OC(=O)C(C)(C)C)c1.Cl [(S)-isoproterenol dipivalate, (S)-isoproterenol dipivalate hydrochloride], the “protective effect against H2O2 oxidative stress” value [6] was “did not show any protective effect”, the “concentration with no visibly noticed cytotoxicity” value [7] was “up to 25 mM” and the “Time entered in level 4” value ([8]; Left eye) was 14.5 week and 19.5 week and 19 week (2×) and 16 week and 18.5 week and 20.5 week (2×) and 8 week and 22 week. The “Time stayed in level 0” value ([8]; Left eye) was 8 week (6×) and 9 week (3×) and 14 week and 18 week and >30 week (4×) and >23 week and 12 week, the “Time stayed in level 1” value ([8]; Left eye) was 1 week (4×) and 2.5 week and 2 week (3×) and 0.5 week (2×) and 3 week (2×) and the “Time stayed in level 2” value ([8]; Left eye) was 2 week (5×) and 1 week and 1.5 week (2×) and 0.5 week (2×) and 2.5 week and 5 week. The “Time stayed in level 3” value ([8]; Left eye) was 2.5 week and 7.5 week and 5.5 week and 3 week and 3.5 week and 7 week and 8 week and 4 week and 5 week and 6.5 week, the “Time entered in level 4” value ([8]; Right eye) was 14.5 week and 19.5 week and 19 week (3×) and 15.5 week and 20.5 week (2×) and 8 week and 22 week and the “Time stayed in level 0” value ([8]; Right eye) was 8 week (7×) and 13 week and 18.5 week (2×) and 17 week and >30 week (2×) and 18 week and 14 week and 11.5 week and 12 week. For the same compound, the “Time stayed in level 1” value ([8]; Right eye) was 1 week (7×) and 0.5 week (5×) and 2.5 week and 2 week and 0 week, the “Time stayed in level 2” value ([8]; Right eye) was 2 week (7×) and 0.5 week (2×) and 1.5 week and 1 week (2×) and 5 week and 2.5 week (2×) and the “Time stayed in level 3” value ([8]; Right eye) was 2.5 week and 7.5 week and 7 week (2×) and 4 week (2×) and 3 week and 8 week and 6.5 week (2×). For the same compound, the “Time stayed in level 0 (cataract initiation), Av ± STD” value [8] was 15.0±8.3 week, the “Time stayed in level 0 (cataract initiation), Av ± STD” value ([8]; listed as drug) was over 15.0 ± 8.3 week and the “Time stayed in level 1, Av ± STD” value [8] was 1.24 ± 0.82 week. For the same compound, the “Time stayed in level 2, Av ± STD” value [8] was 1.88 ± 1.09 week, the “Time stayed in level 3, Av ± STD” value [8] was 5.4 ± 1.9 week and the “Time stayed in level 1, Av ± STD” value ([8]; listed as prodrug) was 1.24±0.82 week. The “Time stayed in level 2, Av ± STD” value ([8]; listed as prodrug) was 1.88±1.09 week, the “Time stayed in level 3, Av ± STD” value ([8]; listed as prodrug) was 5.4±1.9 week and the “percentage of eyes initiating cataract” value ([8]; eyes initiating at 8.6±1.2 weeks) was 53%. The “percentage of eyes initiating cataract” value ([8]; eyes initiating at 17.1±3.1 weeks) was 26%, the “percentage of eyes initiating cataract” value ([8]; eyes initiating at >30 weeks (except one eye >23 weeks)) was 21% and the “time of cataract initiation” value ([8]; first subgroup, 53% of the eyes) was 8.6±1.2 weeks. The “time of cataract initiation” value ([8]; second subgroup, 26% of the eyes) was 17.1±3.1 weeks, the “time of cataract initiation” value ([8]; third subgroup, 21% of the eyes) was over 30 weeks and the “tolerance of PC12 cells” value ([9]; longer incubation up to 24 h, minimum media (data not shown)) was 500 µM. The “concentration PC12 cells were tolerant to” value ([9]; short incubation up to 2 hr) was “up to 500 μM”, the blood glucose level (Group II, non-diabetic rats receiving prodrug, 27 week period) was 5.1 ± 0.4 mM and the blood glucose level (Group IV, diabetic rats receiving prodrug, stabilized level) was 27 ± 5 mM. For the same compound, the degradation on storage [10] was “No degradation”.
For CC(C)NC[C@@H](O)c1ccc(O)c(O)c1.Cl [(S)-isoproterenol HCl, (S)-isoproterenol hydrochloride], the “effect on intra-ocular pressure” value ([5]; topical administration of up to 20%, human eye) is given as “did not show any indication to lower intra-ocular pressure” and the ocular adverse effects ([11]; topical administration of 20%, persisted for several hours) is given as “marked conjunctival hyperemia and mild miosis”.
With CC(C)NC[C@@H](O)c1ccc(O)c(O)c1.O=C(O)C(O)C(O)C(=O)O [(S)-Isoproterenol, (S)-isoproterenol bitartrate] the IC50 [1] was 16.8 ± 0.8 µM, the Imax [1] was 81% and the “protective effect against H2O2 oxidative stress” value [6] was “did not show any protective effect”. The ocular adverse effects ([11]; eye drop, 10%, human eyes) was “only brief mild conjunctival hyperemia and irritation”, the “effect on weight gain/loss” value ([12]; diabetic rats, Group IV vs Group III) was “no effect” and the “effect on weight gain/loss” value ([12]; non-diabetic rats, Group II vs Group I) was “no effect”. The “effect on blood glucose level and diabetes” value (Groups I vs II and III vs IV) was “does not affect the blood glucose level” and the “effects on blood pressure and pulse rate” value [13] was “only slight and transient effects on blood pressure and pulse rate”.
In the case of CC(C)NCC(O)c1ccc(OC(=O)C(C)(C)C)c(OC(=O)C(C)(C)C)c1 (racemic), the cardiovascular effect [14] is listed as “did not produce any unique cardiovascular effect”.
In the case of (R)-Epinephrine, the IC50 [1] is reported as 15.5 ± 1.7 µM and the Imax [1] is reported as 83%.
